Literature values, collected in US8974824B2, “Lanthanum composition” (Mylan Laboratories Ltd., priority 2008, dated 2015).

Conditions: pH range of 3 to 5 in gastric fluid; Lanthanum in two-fold molar excess to phosphate

## [La] [Lanthanum]
  available phosphate bound: approximately 97%
